The NIST ThermoML archive (doi:10.1016/j.jct.2016.09.007)

Experiment: xn = mol fraction of the nth substance listed
Conditions: 93.2 kPa, Liquid; for speed of sound: Frequency=3 MHz, Sing-around technique in a fixed-path interferometer; for mass density: Vibrating tube method

CCCC(=O)[O-].CCCC[NH3+] [n-butylammonium butanoate] + CCO
Conditions	mass density, 293.15 K [kg/m3]	mass density, 298.15 K [kg/m3]	speed of sound, 293.15 K [m/s]	speed of sound, 298.15 K [m/s]	speed of sound, 303.15 K [m/s]
x1 = 0.0512	814.143	810.002	1199	1182	1165
x1 = 0.1009	832.02	828.016	1227.7	1210.7	1193.8
x1 = 0.1503	846.238	842.335	1251.6	1234.6	1217.8
x1 = 0.1994	858.208	854.396	1272.7	1255.7	1238.9
x1 = 0.2504	868.474	864.721	1291.1	1274.2	1257.4
x1 = 0.2982	876.405	872.722	1306	1289.1	1272.3
x1 = 0.3495	883.788	880.151	1320	1303.1	1286.3
x1 = 0.399	890.046	886.464	1332.2	1315.3	1298.5
x1 = 0.4372	894.397	890.847	1340.7	1323.8	1307.1
x1 = 0.4992	900.42	896.912	1352.8	1335.9	1319.2
x1 = 0.547	904.601	901.123	1361.5	1344.5	1327.7
x1 = 0.6017	908.757	905.303	1370.4	1353.3	1336.5
x1 = 0.649	912.071	908.66	1377.6	1360.5	1343.6
x1 = 0.6917	914.76	911.378	1384	1366.7	1349.7
x1 = 0.7436	917.782	914.431	1391.5	1373.9	1356.7
x1 = 0.7901	920.284	916.95	1398.2	1380.2	1362.8
x1 = 0.8493	923.093	919.763	1406.5	1388	1370.2
x1 = 0.8904	924.887	921.547	1412.5	1393.5	1375.2
x1 = 0.94	927.026	923.73	1420.7	1400.8	1382
x1 = 1	928.794	925.509	1431.5	1410.3	1390.4
